Experimental data published in patent publication US7192951B2, “Treatment of congestive heart failure” (Astellas Pharma Inc., priority 2000, dated 2007).
Structures can show the parent of a compound that is named as a salt.

What was measured:
[1] = test system: rats; test: Teratogenicity in rats; assay type: in vivo, rat
[2] = test system: rats; conditions: rat, in vivo, 2.5 mg/kg
[3] = test system: dogs; conditions: dog, in vivo, 2 mg/kg
[4] = test system: bacteria; test: Mutagenicity in bacteria; assay type: cell-based
[5] = test system: rabbits; test: Teratogenicity in rabbits; assay type: in vivo, rabbit
[6] = test system: rats (fertility); test: Reproductive performance and female fertility study in rats; assay type: in vivo, rat
[7] = test system: bone marrow of rats; test: Clastogenicity in bone marrow of rats; assay type: in vivo, rat
[8] = test system: AVP-induced pressor response (V1A antagonism); test: Antagonism of AVP-induced pressor response in rats, oral; assay type: in vivo, rat
[9] = test system: heart failure induced by rapid right ventricular pacing; test: Dogs with heart failure induced by rapid right ventricular pacing; assay type: in vivo, dog; conditions: intravenous 0.1 mg/kg
[10] = Human pharmacokinetics (Phase 1)
[11] = test system: aquaretic action (V2-receptor antagonism); test: Aquaretic action in normal subjects (Phase 1); assay type: in vivo, human
[12] = test system: AVP-induced pressor response (V1A antagonism); test: Antagonism of AVP-induced pressor response in dogs, intravenous; assay type: in vivo, dog
[13] = test system: AVP-induced dermal vasoconstriction; test: AVP-induced dermal vasoconstriction in Phase 1 subjects; assay type: in vivo, human; conditions: 50 mg IV
[14] = test system: AVP-induced platelet aggregation (V1A antagonist activity); test: AVP-induced platelet aggregation in Phase 1 subjects; assay type: in vivo, human; conditions: 20 mg/day orally or 2.5 mg IV
[15] = Oral pharmacokinetics in dogs; assay type: in vivo; conditions: dog
Excerpt: (§1) There is a marked food effect with absorption reduced by >50% in dogs after a meal.

[16] = Oral pharmacokinetics in rats; assay type: in vivo; conditions: rat
Excerpt: as §1

[17] = test system: urinary output (V2 antagonism); test: Urinary output and osmolality in conscious dogs, oral; assay type: in vivo, dog
[18] = test system: female rats (estrous cycle, uterine weights); conditions: 13-week repeated oral dose, all doses
[19] = test system: bone marrow; test: 2- and 13-week oral toxicity studies in dogs; assay type: in vivo, dog
[20] = test system: human subjects; test: Safety in Phase 1 subjects; assay type: in vivo
Excerpt: Other adverse events included flushes, a sensation of cold extremities, abdominal complaints, abnormal stools, syncope, dizziness, palpitations, and postural hypotension. […] These observations were considered related to antagonism of V2 receptors and not a safety concern. Vital signs (blood pressure and heart rate) were unaffected by YM087.

[21] = test system: human lymphocytes; test: Clastogenicity in human lymphocytes in vitro; assay type: cell-based

Structure (SMILES): Cc1nc2c([nH]1)-c1ccccc1N(C(=O)c1ccc(NC(=O)c3ccccc3-c3ccccc3)cc1)CC2 [YM087, N-[4-(2-methyl-4,5,6-tetrahydromidazo[4,5-d][1]benzazepin-6-ylcarbonyl)phenyl]biphenyl-2-carboxamide hydrochloride]
- teratogenicity [1]: not teratogenic
- toxicity in 4-week IV study [2]: No toxicity was observed
- toxicity in 4-week IV study [3]: No toxicity was observed
- mutagenicity [4]: not mutagenic
- teratogenicity [5]: not teratogenic
- female fertility ([6]; female rats, 100 mg/kg orally for 2 weeks prior to mating with untreated males): reduced fertility index, increased implantation loss, and decreased live fetuses
- reproductive performance of male rats ([6]; male rats): did not affect
- clastogenicity [7]: not clastogenic
- ID50 (dose that reduced the AVP response by 50%) [8]: 0.32 mg/kg
- cardiac function [9]: significantly improved the depressed cardiac function
- diuresis [9]: produced a water diuresis
- plasma levels after repeated BID oral doses ([10]; 60 mg BID oral, after the second dose): unexpectedly high plasma levels after the second dose
- half-life ([10]; plasma): 4 to 5 h
- bioavailability ([10]; plasma, oral): 43 to 59%
- Tmax ([10]; plasma, po): ~1 h
- bioavailability ([10]; plasma, po, 60 mg): 44%
- duration of increased urine production rate postdosing ([11]; IV 50 mg/day): ≤ 6 h
- duration of increased urine production rate postdosing ([11]; IV doses up to 250 μg/kg): up to 3 hours
- tolerability of aquaretic effects ([11]; normal subjects, 120 mg QD or 60 mg BID orally or 50 mg IV): considered too uncomfortable in normal subjects to be tolerable
- dose at which aquaretic action with decrease in urine osmolarity starts ([11]; normal subjects, IV): 0.05 mg/kg
- dose at which aquaretic action with decrease in urine osmolarity starts ([11]; normal subjects, oral): 15 mg
- ID50 (dose that reduced the AVP response by 50%) [12]: 0.026 mg/kg
- AVP-induced dermal vasoconstriction [13]: Total inhibition
- AVP-induced platelet aggregation [14]: Inhibition of AVP-induced platelet aggregation
- time to peak concentrations [15]: 1 h
- time to peak concentrations [16]: 0.5 h
- urinary output ([17]; conscious dogs, oral 0.03 to 0.3 mg/kg, dose-related): increased urinary output
- urinary osmolality ([17]; conscious dogs, oral 0.03 to 0.3 mg/kg, reduced from 1500, dose-related): < 100 mOsm/kg H2O
- effect on urinary sodium (Na) or potassium (K) excretion ([17]; unlike furosemide, species not given): little or no effect
- uterine weights [18]: decreased at all doses
- peripheral blood counts ([19]; affected dogs, 13-week oral study): Decreased peripheral erythrocyte, leukocyte, and/or platelet counts
- reversibility of bone marrow and peripheral blood changes ([19]; dogs): reversible
- biochemical or hematological laboratory parameters ([20]; Phase 1 subjects): No drug-related trend was observed
- vital signs (blood pressure and heart rate) ([20]; Phase 1 subjects): unaffected
- overall safety ([20]; approximately 250 subjects treated): no major safety concerns were identified
- urinary and plasma osmolarity ([20]; at higher doses, considered related to V2 antagonism): urinary osmolarity decreased and plasma osmolarity increased with or without an increase in plasma sodium
- serious adverse event ([20]; one patient with severe CHF, 80 mg/day for 4 days, relation to study drug could not be excluded): generalized tonic clonic seizure
- most frequent adverse events ([20]; regardless of treatment association): mild or moderate thirst and mild headache
- white blood cell counts ([20]; three subjects who received YM087 (one on placebo)): minor, reversible decreases in white blood cell counts
- clastogenicity [21]: not clastogenic
